Assay results: patent US20060199876A1, “Bioceramic composite coatings and process for making same” (The University of British Columbia, priority 2005, published 2006)

Assay: Drug release from PCMC composite coating with PLGA diffusion barrier
Assay type: physicochemical
Conditions: release from HAP/PLGA PCMC coating of Example 9 (paclitaxel in HAP phase, Rapamycin in polymer phase) covered with 2 μm thick PLGA (85:15) layer
Experimental: Porous HAP coating was deposited on stent as in the above Example 2. The HAP porous coating stents was impregnated into 2 wt % paclitaxel methanol solution for 20 min and then removed extra solution by high speed spinning, then dried in an oven for 2 hours. The paclitaxel was filled into mesopores and partial into large pore micropores. The paclitaxel loaded stents were subsequently impregnated with 10 wt % PLGA acetone solution containing 2 wt % Rapamycin and then the extra solution removed by spinning. The biopolymer PLGA filled inside pores provides extra flexibility for HAP coatings and diffusion barrier for controlling drug release profiles. Rapamycin in the polymer phase will release much faster than that of paclitaxel only in the HAP phase.
As illustrated in the above Example 9, different drugs were encapsulated into the polymer and HAP phases. In order to add further controls for drug release profile, e.g. to further slow down the drug release rate, a functional diffusion barrier was deposited on the surface of the composite PCMC coating. In this particular example, a 2 μm thick PLGA (85:15) layer was deposited on the PCMC surface by spin-coating. Rapamycin release from such modified PCMC coating was sustained for 3-5 months and paclitaxel for 6-12 months.

- drug release sustained for: 6-12 months
Compound: CC(=O)O[C@H]1C(=O)[C@@]2(C)[C@H]([C@H](OC(=O)c3ccccc3)[C@]3(O)C[C@H](OC(=O)[C@H](O)[C@@H](NC(=O)c4ccccc4)c4ccccc4)C(C)=C1C3(C)C)[C@]1(OC(C)=O)CO[C@@H]1C[C@@H]2O [paclitaxel]
